{"source": "patent US20180085386A1", "about": "“URIDINE MONOPHOSPHATE AND TRIPHOSPHATE DERIVATIVES, COMPOSITIONS AND METHODS OF USE” (Tufts University, priority 2016, published 2018)", "key": {"[1]": {"assay": "Cmax after effective dose of compound 5", "conditions": "mouse, in vivo, 10 ug/kg; effective dose of 10 μg/kg"}, "[2]": {"test_system": "THP-1 cells", "assay": "Cytokine release from human THP-1 cells (multiplex analysis of culture medium)", "format": "cell-based", "conditions": "FIG. 19", "protocol": "THP-1 cells, a human cell line derived from monocytes, were treated in vitro with vehicle, the P2Y6 receptor antagonist MRS 2578, or compound 5, singly or in combination. THP-1 cells were seeded in 24 well plates at a density of 4×10^5 cells/well in culture medium for 24 hours. Thereafter, vehicle, compound 5, or MRS 2578 (singly or in combination) were added to the cultures for 24 hours. Subsequently the culture medium was aspirated and subjected to multiplex cytokine analysis. Data are presented as means+/−sem. MRS 2578 has a molecular weight of about 472 and is also described using CAS number 711019-86-2."}, "[3]": {"test_system": "PSAPP mice", "assay": "Plaque load in cortex and hippocampus by amyloid beta immunostaining", "format": "in vivo, mouse", "conditions": "10 μg/kg i.p. once per day for 7 days; PS1/APP mice 26 weeks; cortex; FIG. 6B"}, "[4]": {"test_system": "PSAPP mice", "assay": "Contextual fear conditioning test (freezing)", "format": "in vivo, mouse", "conditions": "vs vehicle", "protocol": "In this study, the diphosphate derivative of compound 5 was injected intraperitoneally into 6 to 7-month-old PSAPP and WT mice daily at two different doses, i.e., 1 μg/kg or 1 mg/kg of the diphosphate derivative of compound 5 (in 1% DMSO/PBS) for 7 consecutive days. Consistent with the results observed following acute UDP or PSB0474 treatment, treatment with the diphosphate derivative of compound 5 increased total freezing percentage in the context test in PSAPP mice (FIG. 4). […] FIG. 4 depicts the results of experiments using the contextual fear conditioning test with PSAPP mice treated with vehicle control (black bar at center of graph). […]\nIn this study, treatment of PSAPP mice commenced when the mice were pre-symptomatic. […] Following treatment, mice were assessed in a fear conditioning task for memory formation. Subsequently, plaque burden in the mice was also evaluated. […]\nTreatment with compound 5 prevented impairments in contextual fear memory. […] Memory is assessed by the percent time that mice “freeze” 24 hours after a fear inducing electric shock. […]\nIn this study, treatment of PSAPP mice commenced when the mice were pre-symptomatic. […] Following treatment, mice were assessed for the following: concentration of circulating pro-inflammatory cytokines; amyloid beta load (e.g., plaque burden); and memory in a fear conditioning task for memory formation. […]"}, "[5]": {"test_system": "PSAPP mice", "assay": "Plaque load in cortex and hippocampus by amyloid beta immunostaining", "format": "in vivo, mouse", "protocol": "PSB0474 was systemically administered to PSAPP mice via intraperitoneal injection for 2, 4 and 6 consecutive days. In one group, prior to evaluation and following to administration for 6 consecutive days, treatment was suspended for two weeks (6+2 weeks group). Brains were then fixed and plaque load was evaluated by immunostaining with the amyloid beta specific antibodies: β1-40 and β1-42. Representative images of plaque load in cortex and hippocampus from animals that received injections of PSB0474 according to the foregoing injection schedules are shown in FIGS. 1(A)-(D). […] Whereas, when administration of PSB0474 was stopped for 2 weeks following six consecutive days of treatment (denoted as the 6+2 weeks group), β1-40 staining rebounded; although to a level lower than observed in mice treated with saline as a vehicle control. […] FIGS. 2C-2F depict data obtained following administration of different dosages of PSB0474.\nTo generate these graphs showing plaque load, mice were euthanized, brain sections cut and antibodies directed against Aβ42 were used to disclose Aβ plaques. Images were acquired digitally and an algorithm was applied to threshold the image so that plaques were isolated from the background. The algorithm then calculated the percent area of the field of view occupied by the plaques.\nBrain samples were collected for Abeta analysis with immunostaining. Brains samples were collected after transcardial perfusion with phosphate buffer and 4% paraformaldehyde. Floating brain sections (40 micron) were collected using a microtome. Immunostaining for […] and Aβ42 were performed according to previously established protocol. Images with DAB staining were collected with brightfield microscopy and analyzed with ImageJ Macro. All data analysis and statistics were performed in GraphPad Prism 6.0.\n(§1) In this study, treatment of PSAPP mice commenced when the mice were pre-symptomatic. Specifically, treatment was initiated when the mice were approximately 3 months old. PSAPP mice were treated for 100 days with daily, intraperitoneal injections of 10 μg/kg of compound 5 or vehicle. Following treatment, mice were assessed in a fear conditioning task for memory formation. Subsequently, plaque burden in the mice was also evaluated. The data provided in Examples 16 and 17 is for 19 vehicle treated mice and 22 compound treated mice. The data provided for the vehicle-treated group is the average across those mice, and error bars depict the standard error (SEM). Similarly, the data provided for the compound-treated group is the average across those mice, and the error bars depict the SEM.\nas §1, with “assessed for the following: concentration of circulating pro-inflammatory cytokines; amyloid beta load (e.g., plaque burden); and memory” for “assessed”, “formation.” for “formation. Subsequently, plaque burden in the mice was also evaluated.”, “Example 18” for “Examples 16 and 17”, “18” for “19”, “20” for “22”, “SEM. Mice were first evaluated in the fear conditioning task experiment. Subsequently, plasma was taken for multiplex cytokine analysis of circulating levels of cytokine in the plasma. Finally, plaque burden was assessed in the cortex and hippocampus of the mice.” for “SEM.”\nIn this study, treatment of PSAPP mice commenced after the mice were already symptomatic. Specifically, treatment was initiated when the mice were approximately 6 months old. […]"}}, "data": [{"smiles": "O=c1ccn([C@@H]2O[C@H](CO)C(O)C2O)c(=O)n1Cc1noc2ccccc12", "note": "(stereo in doubt) [compound 5]", "values": [{"measurement": "Cmax", "setting": "[1]", "value": 0.013, "unit": "µM"}, {"measurement": "effect of compound 5 on release of IL-7", "setting": "[2]; co-treatment with MRS 2578", "value": "abrogated"}, {"measurement": "release of IL-7 into culture media", "setting": "[2]; compound 5 10 nM, 24 hours, vs vehicle", "value": "decreased"}, {"measurement": "Aβ42 plaque burden", "setting": "[3]", "value": "significantly reduced"}, {"measurement": "freezing time in contextual fear memory test", "setting": "[4]; 10 μg/kg i.p. daily for 100 days from ~3 months of age, Example 17, FIG. 8", "value": "statistically significant increase"}, {"measurement": "freezing time in contextual fear memory test", "setting": "[4]; 10 μg/kg i.p. daily for 100 days from ~3 months, Example 19, FIG. 15(C)", "value": "statistically significant increase"}, {"measurement": "plaque size", "setting": "[5]; 10 μg/kg i.p. daily for 7 days from ~6 months, Example 20, FIG. 17(B)", "value": "decrease"}, {"measurement": "Amyloid beta accumulation in the cortex", "setting": "[5]; 10 μg/kg i.p. daily for 7 days from ~6 months, using Aβ40, Example 20, FIG. 17(A) upper panel", "value": "decreased"}, {"measurement": "Amyloid beta accumulation in the hippocampus", "setting": "[5]; 10 μg/kg i.p. daily for 7 days from ~6 months, using Aβ42, Example 20, FIG. 17(A) lower panel", "value": "decreased"}, {"measurement": "plaque burden", "setting": "[5]; 10 μg/kg i.p. daily for 100 days from ~3 months of age, vs vehicle, Example 17, FIG. 9", "value": "reduced"}, {"measurement": "Amyloid beta accumulation in the cortex", "setting": "[5]; 10 μg/kg i.p. daily for 100 days from ~3 months, vs vehicle, Example 19, FIG. 15(A)", "value": "decreased"}, {"measurement": "Amyloid beta accumulation in the hippocampus", "setting": "[5]; 10 μg/kg i.p. daily for 100 days from ~3 months, vs vehicle, Example 19, FIG. 15(B)", "value": "decreased"}, {"measurement": "size distribution of remaining plaques", "setting": "[5]; 10 μg/kg i.p. once per day for 7 days, PS1/APP mice 26 weeks", "value": "significantly reduced"}, {"measurement": "Aβ40 plaque burden", "setting": "[5]; 10 μg/kg i.p. once per day for 7 days, PS1/APP mice 26 weeks, cortex, FIG. 6A", "value": "significantly reduced"}]}]}
